Data on 85 molecules can be found in a melting point compilation (Tetko et al.; mined from patent text by program, amines drawn as free bases though some values may be those of a salt).

Some results are limits rather than exact numbers.

The melting point is the temperature of the solid-liquid transition. `CCCCOc1ccc(S(=O)(=O)C2(C(=O)NO)CCN(Cc3ccccc3)CC2)cc1` showed a melting point of 144 °C. The figure for `Cn1c2c(c3cc(C#N)ccc31)C(=O)CCC2` is 190 to 192 °C. The figure for `COc1cc(C(=O)N2Cc3ccccc3Cc3ccccc32)ccc1NC(=O)C1(C)C=CC=CC1` (stereo not given) is 209 to 210 °C. The figure for `COc1cc(-c2nn(C)c(C#N)c2C)c(F)cc1Cl` is 155 to 156 °C. Turning to `Cc1cc(-c2ccc(C(F)(F)F)cc2)nc(-c2ccc(C(=O)O)cc2)n1`, the melting point lay in the range of 272 to 275 °C. Regarding `ClCCN1CCC(=C(c2ccccc2)c2ccccc2)CC1`, the melting point was in the range of 85 to 86 °C. As for `CON(c1ccc([N+](=O)[O-])cc1Cl)S(=O)(=O)c1ccc(Cl)c(Cl)c1`, the figure is 132 to 133 °C. As for `CNC(=O)COc1cc(C(F)(F)F)cc(C(F)(F)F)c1`, the figure is 98 to 99 °C; as for `CN1Cc2c(C#CCO)ncn2-c2cccc(Cl)c2C1=O`, 250 to 252 °C. `N#CC(C(=O)Nc1cccc(F)c1)C(=O)c1nn(-c2ccccc2)c2c1Cc1ccccc1-2` (stereo not given) came in with a melting point of 278 to 284 °C.

The molecule `COC1(c2cc(OCc3ccc4c(ccc(=O)n4C)c3)cc(C(F)(F)F)c2)CCOCC1` displayed a melting point of 103 °C. As for `O=C(Nc1ccccc1Cl)C1CN(C(=O)Nc2ccc(C(F)(F)F)cc2)N=C1c1ccc(Cl)cc1` (stereo not given), the figure is > 200 °C; as for `CSc1ccccc1C(=N)N1CCN(CCc2cc3c(cc2Cl)NC(=O)C3)CC1`, 103 to 106 °C. As for `CC(C)c1nc(-c2ccccc2)c(C(C)C)c(-c2ccc(F)cc2)c1C=O`, the figure is 159 to 160 °C; as for `Cn1c(-c2ccc(Cl)cc2)nc2cc(CN3CCN(C(c4ccccc4)c4ccccc4)CC3)ccc21`, 198 °C. Turning to `Cc1cc(C2=NN(c3nncs3)C(C)Cc3cc4c(cc32)OCO4)ccc1[N+](=O)[O-]` (stereo not given), the melting point was in the range of 182 to 189 °C. As for `N#Cc1cc(-c2ccc(Cl)s2)[nH]c1Cl`, the figure is > 200 °C. The figure for `CN(C)CCCNS(=O)(=O)c1ccc(C(C)(C)c2cc(C(C)(C)CC(C)(C)C)cc(-n3nc4ccccc4n3)c2O)cc1` is 96 to 101 °C. As for `CC(CN1CCCC1)N1c2ccccc2Sc2ccc(C(=O)NCC3CCCCC3)cc21` (racemic), the figure is 120 °C; as for `O=C(c1ccco1)N1CCc2cc(S(=O)(=O)n3cc(-c4ccccc4)[nH]c3=O)ccc21`, 256 to 257 °C. `CC(C)c1cccc(C(C)C)c1NC(=O)N(Cc1ccc(O)cc1)CC1(c2c[nH]cn2)CCCCC1` yielded a melting point of 185 to 188 °C. As for `CC(C)COc1c(-c2ccc(S(N)(=O)=O)cc2)cnn(-c2ccc(F)cc2)c1=O`, the figure is 132 to 136 °C. The figure for `CCCCc1nc2ccccc2n1Cc1ccc(-c2ccccc2-c2nnn[nH]2)cc1` is 230 to 232 °C; for `CC(C)(C)OC(=O)N1COC(=O)[C@@H]1CSCc1ccccc1` it is 63 to 65 °C. The figure for `Cn1ccnc1COc1cccc(Nc2cc(-c3c[nH]nc3-c3ccccn3)ccn2)c1` is 120 °C; for `CC(N)(C=CP(=O)(O)O)CCCc1ccc(Sc2cccc(OCc3ccccc3)c2)cc1Cl` (stereo not given) it is 243 to 245 °C. Molecule `CC(C)[C@H](NC(=O)N(C)Cc1nccs1)C(=O)N[C@@H](Cc1ccccc1)C[C@H](O)[C@H](Cc1ccccc1)NC(=O)[C@@H](NC(=O)N(C)Cc1nccs1)C(C)C` had a melting point of 195 to 197 °C.

`O=S(=O)(c1ccccc1)c1ncc(C(F)(F)F)cc1F` had a melting point of 82 to 83 °C. As for `Cc1nc(-n2ccc(OCc3ccccc3)cc2=O)n(C)c1C(=O)NCc1ccccc1`, the figure is 232 to 233 °C.

For the molecule `C=C1NC(=O)N(Cc2ccccc2)C1=N`, the melting point is 139 to 141 °C. As for `N#Cc1ccc(C2NC(=O)Cc3ccccc32)cc1` (stereo not given), the figure is 165 to 168 °C; as for `COc1ccc(C=CC(=O)O)cc1-c1cc2c(cc1OCCCCCCO)C(C)(C)CCC2(C)C`, 118 to 120 °C. As for `COc1ccn2nc(-c3ccccc3)c(-c3ccc(=O)n(C4CCCN(C)C4)n3)c2c1` (stereo not given), the figure is 179 to 180 °C.

`Cc1cn([C@H]2C=C[C@@H](O)C2)c(=O)[nH]c1=O` (racemic): the melting point lay within 191 to 192 °C.

As to `Cc1c(C=NO)c2ccccc2n1C(=O)c1ccc(Cl)cc1`, the melting point came to 152 °C. Consider `CCCCC(=O)c1ccc(NC(C)=O)cc1O`, for which the melting point is 113 °C. As for `ClC(Cl)=Cc1sc(-c2ccccc2)cc1-c1ccccc1`, the figure is 111 to 113 °C. As for `CS(=O)(=O)c1cccc(NC(=O)c2cnn3c(C(F)(F)F)cc(-c4ccc(C(F)(F)F)c(F)c4)nc23)c1`, the figure is 246 °C; as for `CC1(C)CN=C2C(=O)c3cc(S(=O)(=O)N4CCCC4)ccc3N2C1`, 200 to 201 °C. The figure for `CCOC(=O)Cc1ccc(NC(=O)C(CO)NS(=O)(=O)c2ccc(Cl)cc2)cc1` (racemic) is 139 to 140 °C; for `CN1C(=O)C(NC(=O)Nc2cccc(Br)c2)N=C(c2ccccc2)c2ccccc21` (stereo not given) it is 194 to 196 °C; for `NC(=O)C(O)C1OC(n2cnc3c(N)ncnc32)C(O)C1O` (stereo not given) it is 220 to 222 °C.

For `CCCCCCCCn1c(=O)n(CCN2CCN(c3ccccc3OC)CC2)c(=O)c2cscc21`, the melting point fell in the range of 82 to 84 °C.

`COc1cscc1NC=O` came in with a melting point of 95 to 97 °C. The figure for `Cc1c(C(=O)Nc2ccc(N3CCC(N4CCOCC4)CC3)c(Cl)c2)cnn1-c1ccc(Cl)cc1` is 238 to 240 °C. Molecule `COc1cc(Nc2nccc(-c3ccc(O)cc3)n2)cc(OC)c1OC` registered a melting point of 200 to 202 °C. As for `COc1ccc(C(=O)Nc2c(Cl)cncc2Cl)cc1O`, the figure is 227 to 228 °C; as for `CC1(C)C=C(c2cccnc2)c2cc(Br)ccc2OC1`, 116 °C; as for `Nc1ccc(S(=O)(=O)Nc2ccn(C3CCCC3)c(=O)n2)cc1`, 167 to 171 °C. Take `Nc1ncc2c(n1)CCC(=O)C2`: the melting point was 214 to 217 °C.

`COc1cc(Sc2nc(C)c(CC(=O)O)s2)nc(OC)n1` gave a melting point of 164 to 165 °C.

The molecule `CCCCCCCCCCCCC/C=C(/C(=O)Nc1ccc(C(=O)O)cc1)c1ccc2c(c1)C(C)(C)CCC2(C)C` returned a melting point of 59 to 60 °C. The figure for `Nc1nc2c([N+](=O)[O-])cc(OC(F)(F)F)cc2s1` is 260 °C; for `O=C(O)c1cc(=O)c(-c2ccc(OCc3ccccc3)c(OCc3ccccc3)c2)co1` it is 206 to 208 °C; for `COc1cc2c(cc1Cl)C(O)Cc1ccc(F)cc1S2` (stereo not given) it is 143 to 145 °C. The figure for `COc1ccccc1CCSc1c(O)cc(-c2ccccc2)oc1=O` is 114 to 115 °C; for `CNC(=O)c1cn(C)nc1[N+](=O)[O-]` it is 163 to 165 °C; for `O=C(Cc1ccc(F)cc1)c1cccs1` it is 61 to 62.5 °C. `CC(C)c1ccc(N2Cc3ccc(Cl)cc3C2=O)cc1` returned a melting point of 206 to 209 °C. As for `CCCc1nc2ccnn2cc1Cc1ccc(-c2ccccc2C#N)cc1`, the figure is 154 °C; as for `COC(=O)N(Oc1cc(Cl)cc(Cl)c1)C(=O)N(C)C(C)C`, 67 to 69 °C. As for `O=C(O)COc1cccc(COC(=O)N(c2ccccc2)c2ccccc2)c1`, the figure is 142 to 144 °C. Consider `CCCCOc1c(-c2ccc(S(C)(=O)=O)cc2)cnn(-c2ccc(F)c(F)c2)c1=O`, for which the melting point is 129 to 132 °C. As for `CCCC(=O)Nc1n[nH]c2cc(-c3ccc(O)cc3)ccc12`, the figure is 235 °C; as for `COc1nc2cc(Cl)c(Cl)c(N)c2nc1OC`, 182 to 184 °C. As for `Oc1ccc(Sc2cnnc3ccccc23)cc1`, the figure is 238 °C; as for `COC(=O)c1nc(Cl)c(Cl)c(Cl)c1N`, 151 to 152 °C; as for `COc1cc(Nc2c(C#N)cnc3sc(-c4ccc(CN5CCOCC5)cc4)cc23)c(Cl)cc1Cl`, 106 to 108 °C. As for `CCCc1nc2nc3cc(Cl)ccc3nc2[nH]1`, the figure is 280 to 282 °C; as for `O=C1C(CCO)Oc2cc([N+](=O)[O-])ccc2N1Cc1ccccc1Cl` (stereo not given), 106 to 108 °C. The molecule `CC(C)(C)OC(=O)CC1(SN=O)C2CC3CC(C2)CC1C3` (stereo not given) displayed a melting point of 85 to 87 °C. With `CCCCNC(=O)NCc1ccc(Nc2n[nH]c3ncnc(Nc4cccc(Cl)c4)c23)cc1`, the melting point lay in the range of 217 to 218 °C. For the molecule `CCC1CCC(c2ccc(-c3cc(F)c(C(F)(F)Oc4cc(F)c(C(F)(F)F)c(F)c4)c(F)c3)c(F)c2)OC1` (stereo not given), the melting point came to 90 °C.

In turn, `CN(C)c1ccc(S(N)(=O)=O)cn1` showed a melting point of 133 to 138 °C. As for `ClCc1coc(-c2ccc(Cl)s2)n1`, the figure is 90 to 91 °C; as for `COc1ccc(CN2CCc3cc(OCc4ccccc4)c(OC)cc3C2)cc1`, 96 to 97 °C. As for `CC(C)(C)CCN1C(=O)C(NC(=O)Oc2ccccc2)C(=O)N(c2ccccc2)c2ccccc21` (stereo not given), the figure is 170 to 172 °C. The molecule `O=C(Oc1ccccc1)N1CCC2(CC1)SC(c1ccccc1)c1ccc(F)cc12` (stereo not given) showed a melting point of 156 to 158 °C.

For `COC(=O)c1cccc(Oc2ncccc2C(=O)NCc2ccccc2)c1`, the melting point fell in the range of 119 to 120 °C. `COC(=O)NC(C)(C)c1ccc(CC#N)cc1` yielded a melting point of 88 to 90 °C.

Take `NC(=O)N1CC(Oc2ccc(Br)cc2)C1`: the melting point fell in the range of 193 to 194 °C. The figure for `CC(C)(C)OC(=O)CC(NC(=O)CCNC(=O)Cc1ccc(C#N)cc1)C(=O)NC(Cc1ccccc1)C(=O)OC(C)(C)C` (stereo not given) is 93 to 94 °C. The figure for `O=c1c2ccccc2c(Br)cn1C1CN2CCC1CC2` (racemic) is 208 to 209 °C. As for `COC(=O)C(c1ccc(OCCNC(=O)C2Cc3ccccc3N2S(=O)(=O)c2ccc(-c3cccc(C(F)(F)F)c3)cc2)cc1)C(C)C` (stereo not given), the figure is 68 to 76 °C; as for `N#Cc1ccc(COc2ccc(-c3ccc(C4Cc5ccccc5C(O)C4)cc3)cc2)cc1` (stereo not given), 172 °C.
